Marks after values point to notes of the source that are not given here.
How the values were obtained:
bone marrow cells = experiment: Bone marrow and peripheral blood cells in 5-FU immunosuppressed mice; type: in vivo, CBA mice
Procedure: The effects of L-Glu-L-Trp on bone marrow hematopoietic activity was investigated in 5-fluorouracil (5-FU) immunosuppressed CBA mice. Mice were treated with a dose schedule of 5-FU determined empirically to be sufficient to decrease the absolute number of bone marrow cells and peripheral blood leukocytes by about 50% on day 10-14. Treatment with L-Glu-L-Trp was initiated on day 10, and 1 μg/kg was administered ip daily on that day and each of the following 4 days. Bone marrow and peripheral blood cell populations were quantified on day 15.

[1] = tested on: Mycobacterium tuberculosis; parameters: species or system human; details: in vivo
Pseudomonas aeruginosa = experiment: Survival after acute peritonitis with LD100 dose of Pseudomonas aeruginosa; type: in vivo, mice
[2] = Survival in LPS-induced endotoxic shock; type: in vivo, CBA mice; details: 100 μg/kg prophylactic
Procedure: The mortality results were evaluated using the Litchfield-Wilcoxon's probit analysis method and a computer program written to conduct probit analyses.

[3] = Pleuritis / suppurative lung diseases, combined antibiotic therapy (Protocol K); type: in vivo, human
Procedure: Efficacy of L-Glu-L-Trp in combined antibiotic therapy was evaluated in twelve male patients (aged 18 to 45) with suppurative lung diseases that were poorly responsive to antibiotic therapy and accompanied by diffuse pleuritis, disseminated intravascular coagulation (DIC), pleural effusions, and fever. […] L-Glu-L-Trp was administered to these patients as a treatment of nearly last resort, and as part of the ongoing (unsuccessful) regimen of broad spectrum antibiotic therapy: i.e., 200 μg of L-Glu-L-Trp was administered im daily over a period of 5-7 days. […] In addition, T-cell counts in peripheral blood increased and IgG, IgM, and IgA increased (TABLE 17) and C-reactive protein levels fell (TABLE 16).

cAMP and cGMP = experiment: Splenic lymphocyte cAMP and cGMP, normal, sensitized and anaphylactic animals; type: in vivo, guinea pigs; details: for cAMP / cAMP/cGMP / cGMP: splenic lymphocytes, 10 μg/kg
Procedure: Normal guinea pigs (10/group) were treated with 10 μg/kg L-Glu-L-Trp daily on each of five consecutive days and then spleens were removed, lymphocytes isolated, and cyclic AMP and GMP levels determined. To evaluate the effects of L-Glu-L-Trp on immune cells in the face of an ongoing anaphylactic response, splenic lymphocytes were isolated from guinea pigs sensitized for anaphylaxis, or following induction of anaphylactic shock.

[4] = tested on: E-receptors on aged thymocytes; experiment: Expression of E-receptors on aged thymocytes; type: cell-based, guinea pigs; details: for E-RFC (%): aged thymocytes
Description: Effects of L-Glu-L-Trp on expression of E-receptors on “aged” thymocytes was investigated in a manner similar to that in EXAMPLE 26, above, but using thymocytes obtained from old male guinea pigs (700-800 g). In aged animals it is recognized that the percentage of thymocytes forming rosettes with rabbit erythrocytes is reduced, and cell surface E-receptors are likewise reduced. For these studies aged thymocytes were isolated in Medium 199 from 42 guinea pigs, and E-RFC determined as described by Stadecker, M. J., et al., J. Immunol. 111(8):4061-4065 (1973), incorporated herein by reference. L-Glu-L-Trp was dissolved in 0.9% (w/v) NaCl and added to cultures of thymocytes at concentrations of 1, 0.01, and 0.0001 mg/ml.

[5] = bone marrow, 5-FU + 1 μg/kg ip daily 5 days, day 15
[6] = peripheral blood, 5-FU + 1 μg/kg ip daily 5 days, day 15
[7] = sensitized + anaphylaxis (Group 5)
[8] = sensitized guinea pigs (Group 3)

In the case of L-Glu-L-Trp, the Bone marrow cells (bone marrow cells; 1 μg/kg ip, 5 days) is reported as “an increase in the numbers of myelocytes/neutrophils, stab and segmented neutrophils, and megakaryocytes”, the “Eosinophils (% of Normal Control Value)” value (bone marrow cells; [5]) is reported as “(64%)” and the “Eosinophils: %” value (bone marrow cells; [5]) is reported as 1.1%. The “Eosinophils: Total Cells” value (bone marrow cells; [5]) was 15600 mg⁻¹, the “Erythroblasts (% of Normal Control Value)” value (bone marrow cells; [5]) was “(64%)” and the “Erythroblasts: %” value (bone marrow cells; [5]) was 2.1%. The “Erythroblasts: Total Cells” value (bone marrow cells; [5]) was 29600 mg⁻¹, the “Erythroid cells (% of Normal Control Value)” value (bone marrow cells; [5]) was “(59%)” and the “Erythroid cells: %” value (bone marrow cells; [5]) was 9.7%. The “Lymphocytes (% of Normal Control Value)” value (bone marrow cells; [5]) was “(88%)”, the “Lymphocytes: %” value (bone marrow cells; [5]) was 43.9% and the “Lymphocytes: Total Cells” value (bone marrow cells; [5]) was 618900 mg⁻¹. For the same substance, the “Megakaryocytes (% of Normal Control Value)” value (bone marrow cells; [5]) was “(43%)”, the “Megakaryocytes: %” value (bone marrow cells; [5]) was 0.3% and the “Megakaryocytes: Total Cells” value (bone marrow cells; [5]) was 4200 mg⁻¹. For the same substance, the “Monocytes (% of Normal Control Value)” value (bone marrow cells; [5]) was “(60%)”, the “Monocytes: %” value (bone marrow cells; [5]) was 2.5% and the “Monocytes: Total Cells” value (bone marrow cells; [5]) was 35300 mg⁻¹. For the same substance, the “Myeloblasts (% of Normal Control Value)” value (bone marrow cells; [5]) was “(74%)”, the “Myeloblasts: %” value (bone marrow cells; [5]) was 5.0% and the “Myeloblasts: Total Cells” value (bone marrow cells; [5]) was 70600 mg⁻¹. The “Myelocytes + Neutrophil Metamyelocytes (% of Normal Control Value)” value (bone marrow cells; [5]) was “(40%)”, the “Myelocytes + Neutrophil Metamyelocytes: %” value (bone marrow cells; [5]) was 4.0% and the “Myelocytes + Neutrophil Metamyelocytes: Total Cells” value (bone marrow cells; [5]) was 56400 mg⁻¹. The “Myelokaryocytes (% of Normal Control Value)” value (bone marrow cells; [5]) was “(58%)”, the “Myelokaryocytes: Total Cells” value (bone marrow cells; [5]) was 1.41e+06 mg⁻¹ and the “Non-differentiated blast cells (% of Normal Control Value)” value (bone marrow cells; [5]) was “(64%)”. The “Non-differentiated blast cells: %” value (bone marrow cells; [5]) was 2.2%, the “Non-differentiated blast cells: Total Cells” value (bone marrow cells; [5]) was 31000 mg⁻¹ and the “Promyeloblasts (% of Normal Control Value)” value (bone marrow cells; [5]) was “(74%)”. For the same substance, the “Promyeloblasts: %” value (bone marrow cells; [5]) was 3.6%, the “Promyeloblasts: Total Cells” value (bone marrow cells; [5]) was 50800 mg⁻¹ and the “Reticular cells (% of Normal Control Value)” value (bone marrow cells; [5]) was “(50%)”. For the same substance, the “Reticular cells: %” value (bone marrow cells; [5]) was 0.7%, the “Reticular cells: Total Cells” value (bone marrow cells; [5]) was 9800 mg⁻¹ and the “Stab + Seg. neutrophils (% of Normal Control Value)” value (bone marrow cells; [5]) was “(34%)”. The “Stab + Seg. neutrophils: %” value (bone marrow cells; [5]) was 24.9%, the “Stab + Seg. neutrophils: Total Cells” value (bone marrow cells; [5]) was 351000 mg⁻¹ and the “Blast Cells: %” value (bone marrow cells; [6]) was 0.3%. For the same substance, the “Blast Cells: Total Cells” value (bone marrow cells; [6]) was 1e+07 L⁻¹, the “Eosinophils (% of Normal Control Value)” value (bone marrow cells; [6]) was “(100%)” and the “Eosinophils: %” value (bone marrow cells; [6]) was 0.3%. For the same substance, the “Eosinophils: Total Cells” value (bone marrow cells; [6]) was 1e+07 L⁻¹, the “Lymphocytes (% of Normal Control Value)” value (bone marrow cells; [6]) was “(93%)” and the “Lymphocytes: %” value (bone marrow cells; [6]) was 41.9%. For the same substance, the “Lymphocytes: Total Cells” value (bone marrow cells; [6]) was 2.52e+09 L⁻¹, the “Monocytes (% of Normal Control Value)” value (bone marrow cells; [6]) was “(18%)” and the “Monocytes: %” value (bone marrow cells; [6]) was 2.5%. For the same substance, the “Monocytes: Total Cells” value (bone marrow cells; [6]) was 2e+07 L⁻¹, the “Peripheral Blood Leukocytes (% of Normal Control Value)” value (bone marrow cells; [6]) was “(52%)” and the “Peripheral Blood Leukocytes: Total Cells” value (bone marrow cells; [6]) was 2.98e+09 L⁻¹. For the same substance, the “Segmented Neutrophils (% of Normal Control Value)” value (bone marrow cells; [6]) was “(22%)”, the “Segmented Neutrophils: %” value (bone marrow cells; [6]) was 14.6% and the “Segmented Neutrophils: Total Cells” value (bone marrow cells; [6]) was 4.3e+08 L⁻¹. The “Stab. Neutrophils (% of Normal Control Value)” value (bone marrow cells; [6]) was “(26%)”, the “Stab. Neutrophils: %” value (bone marrow cells; [6]) was 7.9% and the “Stab. Neutrophils: Total Cells” value (bone marrow cells; [6]) was 2.4e+08 L⁻¹. For the same substance, the “Clinical outcome at 2 months” value [1] was “disappearance of toxic symptoms, a resorption of pulmonary infiltrates, and a resolution of pulmonary cavities”, the “Considerable Improvement, % of patients” value [1] was 24% and the “Considerable Improvement, No. of patients” value [1] was 9. For the same substance, the “Improvement, % of patients” value [1] was 73%, the “Improvement, No. of patients” value [1] was 27 and the “No Change, % of patients” value [1] was 3%. The “No Change, No. of patients” value [1] was 1, the “Patients with closure of degeneration foci and cavities in the lungs” value [1] was 35 of the 37 and the “Patients with “improvement”” value [1] was 27. The Response rate [1] was 97%, the “Percentage Survivors” value (Pseudomonas aeruginosa; 24 hours after injection, Glu-Trp dose 10 μg/kg (alone or + Gentamycin 1 MED)) was 55.6* % and the “Percentage Survivors” value (Pseudomonas aeruginosa; 24 hours after injection, Glu-Trp dose 100 μg/kg (alone or + Gentamycin 1 MED)) was 66.7*† %. The “Percentage Survivors” value (Pseudomonas aeruginosa; 24 hours after injection, Glu-Trp dose 1000 μg/kg (alone or + Gentamycin 1 MED)) was 77.8*† %, the “Percentage Survivors” value (Pseudomonas aeruginosa; 48 hours after injection, Glu-Trp dose 10 μg/kg (alone or + Gentamycin 1 MED)) was 5.6% and the “Percentage Survivors” value (Pseudomonas aeruginosa; 48 hours after injection, Glu-Trp dose 100 μg/kg (alone or + Gentamycin 1 MED)) was 38.9* %. For the same substance, the “Percentage Survivors” value (Pseudomonas aeruginosa; 48 hours after injection, Glu-Trp dose 1000 μg/kg (alone or + Gentamycin 1 MED)) was 44.4* %, the “Percentage Survivors” value (Pseudomonas aeruginosa; 96 hours after injection, Glu-Trp dose 10 μg/kg (alone or + Gentamycin 1 MED)) was 5.6% and the “Percentage Survivors” value (Pseudomonas aeruginosa; 96 hours after injection, Glu-Trp dose 100 μg/kg (alone or + Gentamycin 1 MED)) was 38.9%. For the same substance, the “Percentage Survivors” value (Pseudomonas aeruginosa; 96 hours after injection, Glu-Trp dose 1000 μg/kg (alone or + Gentamycin 1 MED)) was 44.4* %, the Survival (Pseudomonas aeruginosa; alone or with Gentamycin) was “significantly increased the percentage of mice surviving a lethal challenge of Pseudomonas” and the “Survivors at 24 hr. and 30 hr.” value [2] was “statistically significant difference in the number of survivors”. For the same substance, the Clinical outcome ([3]; 200 μg im daily 5-7 days) was “A dramatic change in the clinical picture was observed in all 12 patients”, the ATIII ([3]; After L-Glu-L-Trp Therapy) was 98.3 ± 15.3 % of normal and the “Clotting time (citrated whole blood-recalcified)” value ([3]; After L-Glu-L-Trp Therapy) was 146.5 ± 28.2. For the same substance, the FDP ([3]; After L-Glu-L-Trp Therapy) was 21.7 ± 0.8 µg/mL, the “Fibrinogen Concentration” value ([3]; After L-Glu-L-Trp Therapy) was 4.7 ± 1.2 g/L and the “Fibrinolytic Activity” value ([3]; After L-Glu-L-Trp Therapy) was 181.2 ± 52.2 min. The Kaolin-Cephalin clotting time ([3]; After L-Glu-L-Trp Therapy) was 61.7 ± 6.1, the “cAMP and cGMP levels” value (cAMP and cGMP; sensitized and anaphylactic animals) was “significantly elevated the levels of cAMP and cGMP” and the cAMP (cAMP and cGMP; [7]) was 210 ± 30 pmole/10^7 cells. For the same substance, the cAMP/cGMP (cAMP and cGMP; [7]) was 26 ± 3, the cGMP (cAMP and cGMP; [7]) was 7.9 ± 0.5 pmole/10^7 cells and the cAMP (cAMP and cGMP; [8]) was 250 ± 30 pmole/10^7 cells. For the same substance, the cAMP/cGMP (cAMP and cGMP; [8]) was 22 ± 2, the cGMP (cAMP and cGMP; [8]) was 11.2 ± 0.9 pmole/10^7 cells and the “Percentage of E-RFC” value ([4]; 1 mg/mL) was “statistically significant increase in the percentage of E-RFC”. For the same substance, the “E-RFC (%)” value ([4]; Conc. 0.0001 mg/ml) was 50.3 ± 4.2%, the “E-RFC (%)” value ([4]; Conc. 0.01 mg/ml) was 47.8 ± 3.9% and the “E-RFC (%)” value ([4]; Conc. 1 mg/ml) was 54.6 ± 4.2 %.

From patent publication US6368788B1 (priority 1987, dated 2002)
